Laboratory results: patent US6878736B1, “Histamine H3 receptor ligands” (James Black Foundation Limited, priority 1998, dated 2005)
Where a name gives a salt, the structure may show the parent alone.

Tests used:
Histamine H3 receptor [1] = target: T1, Histamine H3 receptor (Cavia porcellus, UniProt Q9JI35); assay: Histamine H3 functional assay, guinea pig ileum (ileal longitudinal muscle, myenteric plexus); parameters: species or system tissue; settings: antagonist affinity from rightward shift of R-(α)-methylhistamine E/[A] curves (Schild), typical variance ±0.15 log units; for Kb: read-out: pKb (Guinea pig ileum) (converted)
T1 sequence (Q9JI35 whole entry): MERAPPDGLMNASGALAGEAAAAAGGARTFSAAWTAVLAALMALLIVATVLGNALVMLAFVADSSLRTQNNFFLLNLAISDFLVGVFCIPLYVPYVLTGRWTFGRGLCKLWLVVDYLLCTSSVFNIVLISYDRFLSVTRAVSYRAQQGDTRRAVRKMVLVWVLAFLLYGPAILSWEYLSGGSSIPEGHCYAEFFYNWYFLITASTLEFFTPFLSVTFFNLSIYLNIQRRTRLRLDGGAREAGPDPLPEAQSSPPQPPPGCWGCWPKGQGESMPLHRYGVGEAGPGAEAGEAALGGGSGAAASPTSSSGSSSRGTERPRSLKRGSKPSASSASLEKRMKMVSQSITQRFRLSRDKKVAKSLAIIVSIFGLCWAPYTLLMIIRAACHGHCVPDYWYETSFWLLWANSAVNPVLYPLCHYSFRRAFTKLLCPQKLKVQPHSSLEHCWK
Method in brief: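 Longitudinal muscle–myenteric plexus strips from male Dunkin-Hartley guinea pigs (250-300 g), Krebs-Henseleit buffer at 37±1° C, field-stimulated at 0.1 Hz, 0.5 msec, supramaximal voltage; isometric recording. Cumulative R-(α)-methylhistamine E/[A] curves as % inhibition of twitch height; antagonist affinity by Schild analysis of rightward shift.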

Histamine H3 receptor [2] = target: T1, Histamine H3 receptor; assay: Histamine H3 radioligand binding assay, guinea pig cortex ([3H]-R-α-methylhistamine); settings: guinea pig cortex membranes, competition with 1 nM [3H]-R-α-methylhistamine; for Ki: read-out: pKi (Guinea pig cortex) (converted)
Method in brief: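 Male Dunkin Hartley guinea pig cortical membranes incubated 165 min at 21±3 °C in 20 mM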

Kb (Histamine H3 receptor [1]) [nM]	Ki (Histamine H3 receptor [2]) [nM]	SMILES	pKb (Guinea pig ileum) (Histamine H3 receptor [1])	pKi (Guinea pig cortex) (Histamine H3 receptor [2])
–	–	Cl.Cl.N=C(NCCCCN1CCCC1)NCc1ccc(-c2ccccc2)cc1 [Example 54, N-Biphenyl-4-yl-methyl-N′-(4-pyrrolidin-1-yl-butyl)-guanidine bis-hydrochloride]	7.1	7.3
79.4	5.01	CCCCNC(=N)NCCCCCN1CCCC1 [Example 65, N-Butyl-N′-(5-pyrrolidin-1-yl-pentyl)-guanidine]	–	–
2000	15.8	CC(C)CN1CCC[C@H]1CCCNS(=O)(=O)NCc1ccc(Cl)cc1 [Example 119]	–	–
2000	2000	CNC(=O)CN(CCC[C@@H]1CCCN1C)S(=O)(=O)NCc1ccc(Cl)cc1 [Example 127, N-(4-Chlorobenzyl)-N′-(methylamidomethyl)-N′-(3-(1-methyl-pyrrolidin-2S-yl)propyl)-sulfamide]	–	–
501	126	CN1CCC[C@H]1CCCNS(=O)(=O)c1ccc2ccccc2c1 [Example 91, N-(3-(1-Methyl-pyrrolidin-2S-yl)-propyl)-2-naphthalenesulfonamide]	–	–
126	25.1	C[C@@H](c1ccccc1)N(CCCCCN1CCCC1)C(=N)N [Example 75, N-(1-(S)-Phenyl-ethyl)-N-(5-pyrrolidin-1-yl-pentyl)-guanidine bis-hydrochloride]	–	–
398	25.1	N=C(NCCCN1CCCC1)NCCC1CCCCC1 [Example 42, N-(2-Cyclohexyl-ethyl)-N′-(3-pyrrolidin-1-yl-propyl)-guanidine bis-hydrochloride]	–	–
316	63.1	CN1CCC[C@H]1CCCNS(=O)(=O)CCc1ccc(Cl)cc1 [Example 102, N-(3-(1-Methyl-pyrrolidin-2S-yl)-propyl)-2-(4-chlorophenyl)-ethanesulfonamide]	–	–
631	316	O=S(=O)(NCCCN1CCCC1)NCc1ccc(Cl)cc1 [Example 135, N-(4-Chlorobenzyl)-N′-(3-pyrrolidin-1-yl-propyl)-sulfamide]	–	–
794	501	O=S(=O)(NCCN1CCCCC1)c1ccc2ccccc2c1 [Example 84, N-(2-Piperidin-1-yl-ethyl)-2-naphthalenesulfonamide]	–	–
–	–	Cl.Cl.N=C(NCCOCCN1CCCC1)NCC12CC3CC(CC(C3)C1)C2 [Example 59, N-Adamantan-1-yl-methyl-N′-(2-(2-pyrrolidin-1-yl-ethoxy)-ethyl)-guanidine bis-hydrochloride]	7.0	8.0
2000	631	CN1CCC[C@H]1CCCNS(=O)(=O)CCC1CCCCC1 [Example 142, N-(3-(1-Methyl-pyrrolidin-2S-yl)-propyl)-2-cyclohexyl-ethanesulfonamide]	–	–
20	7.94	N=C(NCCCCN1CCCC1)NCCC12CC3CC(CC(C3)C1)C2 [Example 35, N-(2-Adamantan-1-yl-ethyl)-N′-(4-pyrrolidin-1-yl-butyl)-guanidine bis-hydrochloride]	–	–
100	316	CN1CCC[C@H]1CCCNS(=O)(=O)NCc1ccc(I)cc1 [Example 114, N-(4-Iodobenzyl)-N′-(3-(1-methyl-pyrrolidin-2S-yl)-propyl)-sulfamide]	–	–
631	100	CN1CCCC1CCNS(=O)(=O)c1ccc2ccccc2c1 (stereo not shown) [Example 89, N-(2-(1-Methyl-pyrrolidin-2-yl)-ethyl)-2-naphthalenesulfonamide]	–	–
398	398	CN1CCCC1CCCCNS(=O)(=O)Cc1ccc(Cl)cc1 (stereo not drawn) [Example 104, N-(4-(1-Methyl-pyrrolidin-2S-yl)-butyl)-(4-chlorophenyl)-methanesulfonamide]	–	–
100	7.94	N=C(NCCCCCN1CCCC1)N1CCc2ccccc2C1 [Example 51, N-(5-Pyrrolidin-1-yl-pentyl)-3,4-dihydro-1H-isoquinoline-2-carboxamidine bis-hydrochloride]	–	–
